Test in all cases: DTP human tumour cell line panel, 48 h
Experiment [1] relates to ACHN renal.
For experiment [2], the system named is A498 renal.
Experiment [3] concerns CAKI-1 renal.
In experiment [4] the test system is SNB-75 CNS.
In experiment [5] the test system is BT-549 breast.
The test system of experiment [6] is DU-145 prostate.
The subject of experiment [7] is LOX IMVI melanoma.
Experiment [8] deals with EKVX NSCLC.

The structures appear in SMILES notation.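 Values below derive from 48-hour exposures of cells grown in 96-well plates, with endpoints linearly interpolated between the two concentrations bracketing the appropriate inhibition level. Abbreviation: GI50, concentration required for 50% inhibition of growth. At the TGI there is no net growth.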

By GI50 is commonly meant the concentration giving 50% growth inhibition. One may read the TGI as the concentration giving total growth inhibition. A lower TGI goes with more potent growth arrest.

Take `O=C(/C(=C/c1cccc([N+](=O)[O-])c1)c1ccccc1)c1ccccc1`: the GI50 in experiment [1] was 2.3 µM; in experiment [2], 2.69 µM; in experiment [3], 3.18 µM; in experiment [4], 2.3 µM; in experiment [5] it was 3.38 µM; in experiment [6], 4.22 µM. Moreover, the TGI in experiment [1] came out at 5.41 µM; in experiment [2], 12.9 µM; in experiment [3], 10.2 µM; in experiment [4], 7.65 µM; in experiment [5] it was 13.1 µM; in experiment [6], 14.7 µM.

With `C=C1CC[C@@H]2[C@](C)(COC(C)=O)[C@H](OC(C)=O)CC[C@@]2(C)[C@@H]1CC(Nc1ccc(S(=O)(=O)Nc2ncccn2)cc1)C1=CCOC1=O` (stereo partly specified), the GI50 was 1.72 µM in experiment [1]; 12.3 µM in experiment [2]; 1.74 µM in experiment [3]; 0.891 µM in experiment [7]; 1.27 µM in experiment [4]; 1.64 µM in experiment [5]. Besides, the results for the GI50 in experiment [6] and in experiment [8] were 1.62 µM and 8.18 µM, respectively. Besides, the TGI in experiment [1] stood at 3.27 µM; in experiment [2], 24.7 µM; in experiment [3] it was 4.04 µM; in experiment [7], 2.21 µM; in experiment [4], 3.23 µM; in experiment [5], 3.39 µM. In addition, the TGI in experiment [6] was found to be 3.07 µM; in experiment [8], 20.6 µM.

Take `COc1ccccc1Cn1cc2c(c1-c1ccccc1)CCc1cnoc1-2`: the GI50 in experiment [1] is 5.27 µM; in experiment [2], 1.1 µM; in experiment [3], 1.86 µM; in experiment [7], 3.04 µM; in experiment [4] it was 2.42 µM; in experiment [6], 2.76 µM. The GI50 in experiment [8] is 2.76 µM. Further, the TGI in experiment [1] is more than 100 µM; in experiment [2], 7.18 µM; in experiment [3] it was more than 100 µM; in experiment [7], more than 100 µM; in experiment [4] it was 7.34 µM; in experiment [6] it was 12.1 µM. Also, in experiment [8], the TGI is more than 100 µM.

As to `Cc1ccc(NC(=O)NCCCOc2ccc(N3C(N)=NC(N)=NC3(C)C)cc2Cl)cc1S(=O)(=O)F`, the GI50 in experiment [1] is 49.3 µM; in experiment [2], 75.5 µM; in experiment [3], 70 µM; in experiment [7], 4.19 µM; in experiment [4], 8.62 µM; in experiment [6], 6.04 µM. For the same compound, the GI50 in experiment [8] was 10.9 µM. The TGI was more than 100 µM in experiment [1]; more than 100 µM in experiment [2]; more than 100 µM in experiment [3]; more than 100 µM in experiment [7]; 51.4 µM in experiment [4]; more than 100 µM in experiment [6]. In experiment [8], this compound gave a TGI of more than 100 µM.

As for `CC[CH2][Sn]([Cl])([Cl])[CH2]CC.Oc1ccccc1C=NCCN=Cc1ccccc1O`, the GI50 in experiment [1] was 10.1 µM; in experiment [2], 2.22 µM; in experiment [3], 2.46 µM; in experiment [7] it was 14.4 µM; in experiment [4], 3.34 µM; in experiment [6] it was 12.1 µM. Also, the GI50 in experiment [8] was 12.9 µM. Moreover, the TGI in experiment [1] stood at 21.8 µM; in experiment [2] it was 6.03 µM; in experiment [3], 12.7 µM; in experiment [7] it was 28 µM; in experiment [4], 16.1 µM; in experiment [6] it was 24.6 µM. The TGI in experiment [8] is 27.3 µM.

For the compound `COc1ccc2nc3cc(Cl)ccc3c(NCCN)c2c1`, the GI50 in experiment [1] was 1.58 µM; in experiment [2], 11.7 µM; in experiment [3] it was 1.65 µM; in experiment [5] it was 1.81 µM; in experiment [6], 1.53 µM. Further, the TGI in experiment [1] is 3.17 µM; in experiment [2], 23.9 µM; in experiment [3], 3.06 µM; in experiment [5], 3.39 µM; in experiment [6], 2.92 µM.

On to `C=C1C(=O)O[C@H]2[C@H]1CC/C(COC(=O)c1cc3ccccc3s1)=C\CC[C@@]1(C)O[C@@H]21`, for which the GI50 in experiment [1] was 1.5 µM; in experiment [2] it was 10.1 µM; in experiment [3] it was 1.46 µM; in experiment [7] it was 0.206 µM; in experiment [4] it was 3.52 µM; in experiment [6] it was 1.05 µM. Further, in experiment [8], the GI50 is 1.69 µM. Moreover, the TGI amounted to 2.93 µM in experiment [1]; 21.8 µM in experiment [2]; 2.99 µM in experiment [3]; 0.509 µM in experiment [7]; 13.4 µM in experiment [4]; 2.3 µM in experiment [6]. In addition, in experiment [8], the TGI turned out to be 3.19 µM.

Consider `CC1(C)N=C(N)N=C(N)N1c1ccc(OCc2ccc(S(=O)(=O)F)c(Cl)c2)c(Cl)c1`, for which the GI50 in experiment [1] is 5.48 µM; in experiment [2] it was more than 100 µM; in experiment [7], 0.448 µM; in experiment [4] it was 4.92 µM; in experiment [5], 18.9 µM; in experiment [6] it was 4 µM. Moreover, the GI50 in experiment [8] is more than 100 µM. For the same compound, the TGI in experiment [1], in experiment [2], in experiment [7], in experiment [4], in experiment [5] and in experiment [6] was more than 100 µM in each case. In addition, in experiment [8], the TGI is more than 100 µM.

As to `O=C(O)[C@@H]1CCCCN1Cc1cc2cc3c(cc2c2cc(OCc4ccccc4)ccc12)OCO3`, the GI50 was 2.73 µM in experiment [1]; 3.6 µM in experiment [3]; 1.75 µM in experiment [7]; 2.96 µM in experiment [4]; 2.97 µM in experiment [5]; 5.19 µM in experiment [6]. In experiment [8], the GI50 was 4.42 µM. The total growth inhibition concentration (TGI) is 10.3 µM in experiment [1]; 33.7 µM in experiment [3]; 3.56 µM in experiment [7]; 8.91 µM in experiment [4]; 8.88 µM in experiment [5]; more than 100 µM in experiment [6]. Besides, the TGI in experiment [8] is 25.3 µM.

For `COc1cc2c(c(OC)c1OC)C(=O)[C@@H]1c3ccc([N+](=O)[O-])cc3C(=O)N(CCCBr)[C@H]21`, the GI50 is 15.2 µM in experiment [1]; 2 µM in experiment [3]; 19.5 µM in experiment [7]; 9.46 µM in experiment [4]; 14.6 µM in experiment [5]; 14.6 µM in experiment [6]. Moreover, the GI50 in experiment [8] was 12.7 µM. The concentration for total growth inhibition (TGI) was 58.5 µM in experiment [1]; 14.2 µM in experiment [3]; more than 100 µM in experiment [7]; 45.1 µM in experiment [4]; 55.9 µM in experiment [5]; 53.2 µM in experiment [6]. Moreover, the TGI in experiment [8] was 61.6 µM.
